Measured values from patent US12226400B2, “Neuroprotective disruption of Kv2.1/syntaxin interaction by small molecules” (UNIVERSITY OF PITTSBURGH-OF THE COMMONWEALTH SYSTEM OF …, priority 2018, dated 2025).

Molecular target: T1, munc18/syntaxin 1A (Homo sapiens, UniProt Q16623)
T1 construct: syntaxin 1A plasmid a gift RC204873; host or cells: HEK293
Experiment: Co-immunoprecipitation of munc18 and syntaxin in transfected HEK293 cells
Format: cell-based
Conditions: mean±SEM
Method: Western Blot. Co-immunoprecipitation of munc18 and syntaxin was carried out using PEI transfection of HEK293 cells (American Type Culture Collection) plated and maintained in DMEM medium with 10% FBS and penicillin/streptomycin. 24 hr prior to transfection, HEK293 cells are plated onto 150 mm petri dishes from confluent T75 flasks at the ratio of 2/3 flask per plate. 24 hr after plating, PEI transfection was carried out by mixing 25% munc18 (OriGene RC204873), 25% syntaxin 1A (gift from Raymond A Frizzell, Children's Hospital of Pittsburgh), and 50% pcDNA3 (Invitrogen) plasmids ([…] total plasmids with 500 μl medium without penicillin/streptomycin, and 110 μl PEI at 1 mg/ml). The PEI was lastly added to the mixture drop-wise to avoid clumping of the DNA precipitates. This transfection reagent was allowed to incubate in room temperature for at least 5 min. The HEK293 medium was replaced with medium without penicillin/streptomycin prior to the addition of the transfection mixture. At 24 hr after transfection, the transfection medium was replaced with regular medium containing either cpd5 or DMSO. The cells were lysed and protein was harvested 24 hr after cpd5/DMSO treatment using 200 μl NP40 buffer (Invitrogen) containing phenylmethylsulfonyl fluoride (PMSF, Sigma-Aldrich) and protease inhibitor cocktail (¼ tablet, cOmplete Mini, EDTA-free, Sigma-Aldrich). The resulting HEK293 sample was immunoprecipitated using mouse anti-syntaxin 1A antibody (abeam). The western blot was probed using the Biogen system with the same syntaxin 1A antibody and mouse anti-Flag (Sigma-Aldrich) used for the detection of munc18. Quantification of protein pulldown was normalized to the syntaxin signal before comparisons. SDS-PAGE in this study are run in 10% acrylamide. Small variations in band separation are caused by the semi-wet transfer method.

T1 sequence (Q16623 whole entry, species assumed): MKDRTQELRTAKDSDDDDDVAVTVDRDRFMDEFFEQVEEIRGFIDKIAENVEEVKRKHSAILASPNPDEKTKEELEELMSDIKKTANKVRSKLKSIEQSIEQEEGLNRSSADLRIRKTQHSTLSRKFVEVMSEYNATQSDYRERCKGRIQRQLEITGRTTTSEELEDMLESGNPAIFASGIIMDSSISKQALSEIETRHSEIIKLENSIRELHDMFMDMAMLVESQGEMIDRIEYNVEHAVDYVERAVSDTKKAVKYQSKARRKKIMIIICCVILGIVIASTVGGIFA

## COc1ccc(CNC(=O)Nc2cccc(-c3nc4ccccc4s3)c2)cc1OC [cpd5, 3-[3-(1,3-benzothiazol-2-yl)phenyl]-1-[(3,4-dimethoxyphenyl)methyl]urea]
10 μM cpd5, 24 hr
  munc18 co-immunoprecipitated with syntaxin, cpd5/DMSO: 1.032±0.034
30 μM cpd5, 24 hr
  munc18 co-immunoprecipitated with syntaxin, cpd5/DMSO: 0.4459±0.09367
100 μM cpd5, 24 hr
  munc18 co-immunoprecipitated with syntaxin, cpd5/DMSO: 0.4339±0.135
